Laboratory results from patent US9051351B2, “Hepatocyte growth factor mimics as therapeutic agents” (Washington State University, priority 2011, dated 2015).
“Also recorded” adds a separate entry of the source. Where a SMILES comes first, the peptide text is derived from it. [ ]: non-standard residue; d: D form. dNle = CCCC[C@@H](N)C(=O)O; Ahx = NCCCCCC(=O)O

Assays:
[1] = rat, in vivo, iv, 24 mg/kg
Procedure: Male Sprague-Dawley rats (250+ g) were allowed food (Harlan Teklad rodent diet) and water ad libitum in our AAALAC certified animal facility. Rats were housed in temperature-controlled rooms with a 12 h light/dark cycle. The right jugular veins of the rats were catheterized with sterile polyurethane Hydrocoat™ catheters (Access Technologies, Skokie, Ill., USA) under ketamine (Fort Dodge Animal Health, Fort Dodge, Iowa, USA) and isoflurane (Vet One™, MWI, Meridian, Id., USA) anesthesia. The catheters were exteriorized through the dorsal skin. The catheters were flushed with heparinized saline before and after blood sample collection and filled with heparin-glycerol locking solution (6 mL glycerol, 3 mL saline, 0.5 mL gentamycin (100 mg/mL), 0.5 mL heparin (10,000 u/mL)) when not used for more than 8 h. The animals were allowed to recover from surgery for several days before use in any experiment, and were fasted overnight prior to the pharmacokinetic experiment. […]
Pharmacokinetic analysis was performed using data from individual rats. The mean and standard deviation (SD) were calculated for the group. Noncompartmental pharmacokinetic parameters were calculated from serum drug concentration-time profiles by use of WinNonlin® software (Pharsight, Mountain View, Calif., USA).

[2] = molecular target: T1, human HGF (Homo sapiens, UniProt P14210); experiment: HGF dimerization (PAGE, silver staining); type: biochemical; conditions: analog 10^−10 M, heparin, 30 minute incubation
T1 construct: purchased R&D Systems (Minneapolis, Minn.)
Procedure: HGF dimerization was assessed using PAGE followed by silver staining (Kawas et al., 2011). Human HGF at a concentration of 0.08 ng/μl with or without 6-AH analogs was incubated with heparin at a final concentration of 5 μg/ml. Loading buffer was then added to each sample and the mixture separated by native PAGE using gradient Criterion XT precast gels (4-12% Bis-Tris; Biorad Laboratories, Hercules, Calif.). Next the gel was silver stained for the detection of the HGF monomers and dimers. Bands were quantitated from digital images using a UVP phosphoimager (Upland, Calif.).

[3] = Blood stability in heparinized rat blood; type: in vitro ADME; conditions: 37° C.; single phase exponential decay
Procedure: At the end of each incubation, 20 μL of […]

[4] = system: MDCK cells; experiment: HGF-dependent MDCK cell proliferation (MTT); type: cell-based, canine; conditions: analog 10^−10M, HGF 10 ng/ml, 4 days
Procedure: 5000 MDCK cells were seeded into the wells of a 96 well plates in 10% FBS DMEM. To induce cellular quiescence, the cells were serum deprived for 24 h prior to initiating the treatments. Following serum starvation, 10 ng/ml HGF alone and with various concentrations of 6-AH analogs or PBS vehicle were added to the media. The cells were allowed to grow under these conditions for 4 days with a daily addition of 6-AH analogs. On the fourth day, 1 mg/ml of […] (MTT, Sigma-Aldrich) prepared in PBS was added to the cells and incubated for 4 h. Dimethyl sulfoxide diluted in a 0.01M glycine buffer was added to solubilize the cell membranes and the absorbance of reduced MTT in the buffer was quantitated at 590 nm using a plate reader (Biotek Synergy 2, Winooski, Vt.). HGF-dependent proliferation was determined by subtracting the basal proliferation (in the absence of HGF) from total proliferation rates in groups containing HGF.

[5] = system: B16-F10 murine melanoma cells; experiment: B16-F10 melanoma lung colony formation; type: in vivo, mouse; conditions: C57BL/6 mice; daily IP 10 μg/kg/day or 100 μg/kg/day, 14 days
Procedure: Six to eight month old C57BL/6 mice were injected with 400,000 B16-F10 cells in 200 μl PBS by tail vein injection and subsequently received daily intraperitoneal injections of either D-Nle-X-Cys-NH—(CH2)5—CONH2 (10 μg/kg and 100 μg/kg) or a PBS vehicle control. Two weeks later, mice were anesthetized and lungs were perfused with PBS and removed. Photos were taken and lungs were solubilized in 1% Triton x-100, 20 mM Tris, 0.15 M NaCl, 2 mM EDTA, and 0.02% sodium azide. Samples were disrupted by sonication (Mixonix, Farmingdale, N.Y.) and spun. The supernatant was transferred to a 96 well plate and melanin absorbance at […] was measured using a plate reader.

[6] = system: scopolamine treated rats; experiment: Morris water maze, scopolamine amnesia model; type: in vivo, rat; conditions: for mean latency to find the pedestal: icv, Dihexa, Hinge 300 pmol, scopolamine 70 nmol
Procedure: Swim speed was determined from these values.

[7] = system: MDCK cells; experiment: Inhibition of HGF-dependent scattering in MDCK cells; type: cell-based, canine
Procedure: (§1) MDCK cells were grown to 100% confluency on the coverslips in six-well plates and washed twice with PBS. The confluent coverslips were then aseptically transferred to new six well plates containing 900 μl serum free DMEM. Norleual, Hinge peptide, and/or HGF (20 ng/ml) were added to appropriate wells. Control wells received PBS vehicle. Plates were incubated at 37° C. with 5% CO2 for 48 hours. Media was removed and cells were fixed with methanol. Cells were stained with Diff-Quik Wright-Giemsa (Dade-Behring, Newark, Del.) and digital images were taken. Coverslips were removed with forceps and more digital images were captured. Pixel quantification of images was achieved using Image J and statistics were performed using Prism 5 and InStat v.3.05.
as §1, with “h.” for “hours.”, “Cells were stained with Diff-Quik Wright-Giemsa (Dade-Behring, Newark, Del.) and digital images were taken. Coverslips were removed with forceps and more digital images were captured.” left out, “v.3.05 (GraphPad; San Diego, Calif.).” for “v.3.05.”

[8] = system: hippocampal neurons; experiment: Dendritic spine counts (spinogenesis) in mRFP-β-actin transfected dissociated hippocampal neurons; type: cell-based, rat
Procedure: Hippocampal neurons (2×10^5 cells per square cm) were cultured from P1 Sprague Dawley rats on plates coated with poly-L-lysine from Sigma (St. Louis, Mo.; molecular weight 300,000). […] Each experiment was repeated at least three times using independent culture preparations. […] Hippocampal neurons (2×10^5 cells per square centimeter) were cultured from P1-2 Sprague Dawley rats on plates coated with poly-L-lysine from Sigma (St. Louis, Mo.; molecular weight 300,000). Hippocampal neurons were maintained in Neurobasal A media from Invitrogen (Carlsbad, Calif.) supplemented with B27 from Invitrogen, 0.5 mM L-glutamine, and […] cytosine-D-arabinofuranoside from Sigma added at 2 days in vitro. Hippocampal neurons were then cultured a further 3-7 days, at which time they were either transfected or treated with various pharmacological reagents as described in the text or figure legends. Neurons were transfected with mRFP-β-actin on day in vitro 6 […] using LipofectAMINETM 2000 (Invitrogen) according to the manufacturer's protocol. […] On DIV7 the cells were treated with vehicle (H20) or peptides (as described in the text) added to media. […] Five 50 μm long segments of dendrite from at least 10 neurons per data point were analyzed for each data point reported. Each experiment was repeated at least three times using independent culture preparations. […] A target sequence for c-Met was designed using RNAi central design program (see the website located at […].edu/). The target sequence […] NO: 2) was inserted into pSUPER vector (Oligoengine, Seattle Wash.) which drives endogenous production of shRNA under the H1 promoter. The shRNA was transfected into cells using the lipofectamine method described above. Verification of receptor knockdown was done by creating a c-[…]-Myc tagged gene product using the Gateway cloning system (Invitrogen). The Met protein coding sequence was cloned from rat whole brain cDNA using primers obtained from Integrated DNA Technologies, Inc. The amplified product was gel purified and a band corresponding to 190 kDa band excised and cloned into a […] destination vector (Gateway). Hippocampal neurons (2×10^5 cells per square cm) were cultured from P1 Sprague Dawley rats on plates coated with poly-L-lysine from Sigma (St. Louis, Mo.; molecular weight […]).

[9] = system: hippocampal neurons; experiment: Whole-cell recordings of mEPSCs in dissociated hippocampal neurons; type: cell-based, rat; conditions: Dihexa, Hinge 10^−12 M; HGF 10 ng/ml; 5 days

T1 sequence (P14210 32-728): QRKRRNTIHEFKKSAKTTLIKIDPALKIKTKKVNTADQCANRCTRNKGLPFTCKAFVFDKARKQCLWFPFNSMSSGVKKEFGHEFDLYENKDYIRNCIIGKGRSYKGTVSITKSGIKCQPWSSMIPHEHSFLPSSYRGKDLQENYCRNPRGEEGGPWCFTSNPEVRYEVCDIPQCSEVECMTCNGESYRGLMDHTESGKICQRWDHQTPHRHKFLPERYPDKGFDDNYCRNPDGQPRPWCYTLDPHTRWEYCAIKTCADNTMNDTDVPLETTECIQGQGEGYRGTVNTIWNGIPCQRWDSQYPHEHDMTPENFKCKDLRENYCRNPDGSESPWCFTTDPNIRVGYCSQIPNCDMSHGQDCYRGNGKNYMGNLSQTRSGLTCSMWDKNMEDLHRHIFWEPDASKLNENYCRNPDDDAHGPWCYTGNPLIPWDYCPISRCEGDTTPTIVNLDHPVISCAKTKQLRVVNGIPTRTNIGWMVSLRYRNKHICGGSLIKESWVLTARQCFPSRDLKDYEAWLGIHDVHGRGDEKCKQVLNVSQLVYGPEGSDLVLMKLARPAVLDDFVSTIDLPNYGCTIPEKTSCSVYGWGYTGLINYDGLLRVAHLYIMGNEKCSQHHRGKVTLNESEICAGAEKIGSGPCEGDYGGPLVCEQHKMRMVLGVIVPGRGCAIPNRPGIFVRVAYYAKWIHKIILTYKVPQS

Molecule	Cp^0 [1]	KE [1]	inhibition of HGF dimerization [2]	inhibition of HGF dimerization ([2]; listed as Tyr)	stability t1/2 in heparinized rat blood [3]	inhibition of HGF-dependent MDCK cell proliferation [4]	inhibition of HGF dimerization ([2]; listed as Cys)	B16-F10 melanoma lung colonization [5]	mean latency to find the pedestal ([6]; day one of training)	mean latency to find the pedestal ([6]; final day of training (day 8))	mean latency to find the pedestal ([6]; fourth day of training)	latency to escape, Morris water maze (FIG. 21) ([6]; i.c.v. injections, 8 days of training)	inhibition of MDCK cell scattering by Hinge [7]	inhibition of HGF-, Nle1-AngIV- and Dihexa-induced spinogenesis by Hinge ([8]; Hinge 10^−12 M, HGF 10 ng/ml, Nle1-AngIV or Dihexa 10^−12 M)	effect of Hinge alone on spinogenesis ([8]; wide range of doses)	mean frequency of mEPSCs [9]
CCCC[C@@H](N)C(=O)N[C@@H](Cc1ccc(O)cc1)C(=O)N[C@H](C(=O)NCCCCCC(N)=O)[C@@H](C)CC (H-[dNle]YI[Ahx]-NH2)	68.2 ± 32.2 ng/mL	0.001 ± 0.0002 min⁻¹	completely block HGF dimer formation	statistically different than the HGF treated group	1.333 h	marked inhibitory activity										
CCCC[C@@H](N)C(=O)N[C@@H](CS)C(=O)N[C@H](C(=O)NCCCCCC(N)=O)[C@@H](C)CC [D-Nle-Cys-Ile-NH—(CH2)5—CONH2] (H-[dNle]CI[Ahx]-NH2)			completely block HGF dimer formation			marked inhibitory activity	statistically different than the HGF treated group	suppressed pulmonary colonization; also recorded: radically prevented lung colonization; also recorded: obvious reduction in melanoma colonies								
Hinge: novel HGF antagonist Hinge (DYIRNC, SEQ ID NO: 3); elsewhere Hinge peptide (KDYIRN), the dimerization domain of HGF (Synthetic hinge peptide) [reference compound]									111.1 s	46.1 s	78.3 s	no effect on learning	inhibit scattering of Madin-Darby canine kidney (MDCK) cells	effectively inhibit spine formation; also recorded: inhibits HGF-induced spinogenesis; also recorded: inhibits Nle1-AngIV-induced spinogenesis; also recorded: inhibits Dihexa-induced spinogenesis	no effect on spinogenesis over a wide range of doses; also recorded: does not affect spinogenesis	4.51±0.47
